{"source": "paper PMC10382351", "about": "“In vivo evaluation of a novel ^18F-labeled PET radioligand for translocator protein 18 kDa (TSPO) in monkey brain” (European Journal of Nuclear Medicine and Molecular Imaging, 2023)", "key": {"TSPO [1]": {"target": "TSPO", "parameters": "method as in PMID 25123416, PMID 34756026", "conditions": "human brain homogenates; against [^3H]PK11195; cited from earlier work"}, "TSPO [2]": {"tested_on": "TSPO", "conditions": "cited from earlier work; for BPND of whole brain: monkey brain"}, "[3]": {"tested_on": "18 kDa translocator protein (TSPO)", "assay": "PET imaging of [^18F]SF51 in rhesus monkey brain with kinetic analysis (2TCM, Logan plot, Lassen plot)", "format": "in vivo", "conditions": "radioligand [^18F]SF51", "experimental": "Electrocardiogram, body temperature, heart rate, and respiratory rate measures were monitored throughout the scan.\nBrain PET imaging was performed using a microPET Focus 220 camera (Siemens Medical Solution; Knoxville, TN). […] For baseline experiments, 20 mL of a vehicle containing 20% (2-hydroxypropyl)-β-cyclodextrin and two equivalents of HCl were injected intravenously 10 min before radioligand administration. For the blocked experiment, PK11195 was dissolved in vehicle and then injected intravenously (5 mg/kg) 10 min before radioligand injection for all three monkeys. One of the three monkeys underwent an additional blocked scan with 5 mg/kg of PBR28, performed using a MultiScan™ LFER 150 PET/CT (Mediso USA, LLC; Arlington, VA). The interval between baseline and blocked imaging sessions was at least three weeks in order to allow the monkey to recover from arterial blood sampling. Focus 220 PET images were histogrammed into 30 time frames (6 × 30, 3 × 60, 2 × 120, 4 × 300, and 15 × 600 s) and reconstructed using Fourier rebinning plus a two-dimensional filtered back-projection with scatter and attenuation correction. MultiScan LFER PET images were reconstructed with 3D-OSEM with two iterations and nine subsets and were corrected for scatter and attenuation.\nPET images were co-registered to a standardized monkey MRI template using PMOD software (PMOD version 4.1, PMOD Technologies Ltd.; Zurich, Switzerland). Thirty-three predefined regions of interest (ROIs) from a monkey brain template were applied to the co-registered PET images to obtain regional time-activity curves (Supplementary Table S2). Brain uptake was expressed as standardized uptake value (SUV), which normalizes for injected radioactivity and body weight. Using the brain time-activity curves and the radiometabolite-corrected arterial input function, the total VT was derived from a two-tissue compartment model (2TCM). Receptor occupancy by PK11195 and nondisplaceable distribution volume (VND/fP) of [^18F]SF51 were determined by an axes-transformed Lassen plot, where the y-axis reports the difference in VT between the baseline and the blocked scans, corrected by the respective fp values, and the x-axis reports the values at baseline (VTbase/fPbase)."}}}
{"smiles": "CC[C@@H](C)N(C)C(=O)c1nc(-c2ccccc2Cl)c2ccccc2n1", "note": "[ER176]", "values": [{"measurement": "Ki ratio between LAB and HAB", "setting": "TSPO [1]", "result": 1.28}, {"measurement": "BPND of whole brain", "setting": "TSPO [2]", "result": 8.9}]}
{"smiles": "CCC(C)N(C)C(=O)c1cc2ccccc2c(-c2ccccc2Cl)n1", "note": "(stereo not drawn) [PK11195, reference compound]", "values": [{"measurement": "Receptor occupancy (Lassen plot)", "setting": "[3]; PK11195 5 mg/kg i.v., three rhesus monkeys", "result": "102 ± 3", "unit": "%"}, {"measurement": "Slope of Lassen plot (= occupancy)", "setting": "[3]; PK11195 5 mg/kg, mean ± SD, n = 3", "result": "1.02 ± 0.03"}]}
{"smiles": "CC[C@@H](C)N([11CH3])C(=O)c1nc(-c2ccccc2Cl)c2ccccc2n1", "note": "[[^11C]ER176]", "values": [{"measurement": "VT/fP in the whole brain", "setting": "TSPO [2]; monkey", "result": 186, "unit": "mL·cm^−3"}]}
{"smiles": "CC[C@@H](C)N([11CH3])C(=O)c1nc(-c2cccc(F)c2)c2ccccc2n1", "note": "[[^11C]SF51]", "values": [{"measurement": "BPND of whole brain", "setting": "TSPO [2]", "result": 8.1}]}
